Read-outs that look alike come from different tables or passages of the source.
Legend:
NCI-H929 cell lines = test: In vitro cytotoxicity, CellTiter-Glo (CTG) assay (Example B, Method B); type: cell-based; conditions: Homo sapiens, NCI-H929, 48 h, NCI-H929 cells, 48 h incubation, read-out: C50
Method in brief: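 ATP-based luminescence (CellTiter-Glo) after 48 h incubation at 37° C., 5% CO2 gave NCI-H929 viability. Eleven concentrations tested, highest final 30 μM, dispensed acoustically from 10 mM DMSO stocks; C50 defined as concentration reaching 50% viability.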

[1] = target: Cy5-labelled Mcl1 (amino acids 171-321) C286S protein (UniProtKB Q07820) (Homo sapiens (Human), UniProt Q07820, C286S); test: Inhibition of Mcl-1 by the fluorescence quenching assay (Example A, Method B); type: binding
Sequence of Cy5-labelled Mcl1 (amino acids 171-321) C286S protein (Q07820 171-321 C286S): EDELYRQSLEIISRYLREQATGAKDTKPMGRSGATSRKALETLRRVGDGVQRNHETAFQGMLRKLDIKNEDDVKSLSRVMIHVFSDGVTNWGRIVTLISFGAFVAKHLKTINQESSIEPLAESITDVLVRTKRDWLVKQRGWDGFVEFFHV
Method in brief: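 Eleven-point compound series incubated 2 h at room temperature with 1 nM Cy5-tagged protein and quencher-labelled PUMA peptide at 10, 20 or 400 nM in HEPES/NaCl/Tween 20, pH 7.4, 5% DMSO. IC50 for 50% fluorescence increase by 4-parameter fit, then Ki derived (complete cKi or estimated eKi).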

Row | Ki [1] | Ki ([1]; Ki determined from IC50) | Structure (SMILES) | IC50 (NCI-H929 cell lines)
1 | 0.0108 nM |  | COCc1cc2c(cc1F)C[C@H](C[C@@H](C)COc1ccnc3c1[C@H](C)CCC3)[C@]21CC[C@](Nc2cccc(Cl)c2)(C(=O)O)CC1 [Example 921, (1r,2′S,4S)-4-(3-chloroanilino)-5′-fluoro-6′-(methoxymethyl)-2′-[(2R)-2-methyl-3-{[(5R)-5-methyl-5,6,7,8-tetrahydroquinolin-4-yl]oxy}propyl]-2′,3′-dihydrospiro[cyclohexane-1,1′-indene]-4-carboxylic acid] | 35.9 nM
2 | 303 nM |  | COCCOCCOC(=O)[C@]1(Nc2cccc(Cl)c2)CC[C@@]2(CC1)c1cc3c(cc1C[C@@H]2C[C@@H](C)COc1ccnc2c1[C@H](C)CCC2)OCO3 [Example 933, 2-(2-methoxyethoxy)ethyl (1r,4S,6′S)-4-(3-chloroanilino)-6′-[(2R)-2-methyl-3-{[(5R)-5-methyl-5,6,7,8-tetrahydroquinolin-4-yl]oxy}propyl]-6′,7′-dihydro-2′H-spiro[cyclohexane-1,5′-indeno[5,6-d][1,3]dioxole]-4-carboxylate] | 18900 nM
3 |  | 1.5 nM | Cc1ccc2c(c1)CN(C[C@@H](C)COc1ccnc3c1[C@H](C)CCC3)[C@]21CC[C@](Nc2cccc(Cl)c2C)(C(=O)O)CC1 [Example 53, (1s,4S)-4-(3-chloro-2-methylanilino)-5′-methyl-2′-[(2R)-2-methyl-3-{[(5R)-5-methyl-5,6,7,8-tetrahydroquinolin-4-yl]oxy}propyl]-2′,3′-dihydrospiro[cyclohexane-1,1′-isoindole]-4-carboxylic acid] | 451 nM
4 | 69 nM |  | COCCOC(=O)[C@]1(Nc2cccc(Cl)c2)CC[C@@]2(CC1)c1cc3c(cc1C[C@@H]2C[C@@H](C)COc1ccnc2c1[C@H](C)CCC2)OCO3 [Example 934, 2-methoxyethyl (1r,4S,6′S)-4-(3-chloroanilino)-6′-[(2R)-2-methyl-3-{[(5R)-5-methyl-5,6,7,8-tetrahydroquinolin-4-yl]oxy}propyl]-6′,7′-dihydro-2′H-spiro[cyclohexane-1,5′-indeno[5,6-d][1,3]dioxole]-4-carboxylate] | > 30000 nM
5 | 11 nM |  | COC(=O)OCOC(=O)[C@]1(Nc2cccc(Cl)c2)CC[C@@]2(CC1)c1cc3c(cc1C[C@@H]2C[C@@H](C)COc1ccnc2c1[C@H](C)CCC2)OCO3 [Example 946, [(methoxycarbonyl)oxy]methyl (1r,4S,6′S)-4-(3-chloroanilino)-6′-[(2R)-2-methyl-3-{[(5R)-5-methyl-5,6,7,8-tetrahydroquinolin-4-yl]oxy}propyl]-6′,7′-dihydro-2′H-spiro[cyclohexane-1,5′-indeno[5,6-d][1,3]dioxole]-4-carboxylate] | 34.2 nM
6 | 2.28 nM |  | C[C@@H](COc1ccnc2c1[C@H](C)CCC2)C[C@H]1Cc2ccccc2[C@]12CC[C@@](Oc1cccc(Cl)c1)(C(=O)O)CC2 [Example 717, (1r,2′S,4S)-4-(3-chlorophenoxy)-2′-[(2R)-2-methyl-3-{[(5R)-5-methyl-5,6,7,8-tetrahydroquinolin-4-yl]oxy}propyl]-2′,3′-dihydrospiro[cyclohexane-1,1′-indene]-4-carboxylic acid] | 367 nM
7 | 0.0885 nM |  | C[C@@H](COc1ccnc2c1[C@H](C)CCC2)C[C@H]1Cc2cc3c(cc2[C@]12CC[C@@](Nc1cccc(Cl)c1)(C(=O)O)CC2)OCC1(CCC1)CO3 [Example 995, (1″r,4″S,8′S)-4″-(3-chloroanilino)-8′-[(2R)-2-methyl-3-{[(5R)-5-methyl-5,6,7,8-tetrahydroquinolin-4-yl]oxy}propyl]-8′,9′-dihydro-2′H,4′H-dispiro[cyclobutane-1,3′-indeno[5,6-b][1,4]dioxepine-7′,1″-cyclohexane]-4″-carboxylic acid] | 108 nM

— patent US20240150293A1, “SPIROCYCLOHEXANE DERIVATIVES, PHARMACEUTICAL COMPOSITIONS CONTAINING THEM AND THEIR USES AS ANTI-APOPTOTIC INHIBITORS” (LES LABORATOIRES SERVIER, priority 2021, published 2024)
